The values below come from patent US20120190615A1, “METHODS AND COMPOSITIONS FOR INDUCING WEIGHT LOSS” (Sanford-Burnham Medical Research Institute, priority 2011, published 2012).

Values joined by “and” are separate entries in the source; they are usually repeats but may differ in a detail not shown here. Identical values can stand only once.

Series [1] has as its system WtB6 mice fed a high fat diet. Nature of the series: High fat diet six weeks with two weekly OX injections, obesity resistance (Example 12). It counts as in vivo. The text has this: To confirm that OX prevents obesity under conditions of caloric excess, a high fat diet (HFD) was fed to WtB6 mice for six weeks. Mice received two weekly OX or PBS injections (n=6/group). Food intake and body weight of both groups were monitored weekly. […] OX-injected animals, however, resisted weight gain, which became apparent during the second wk of therapy (FIG. 28B). At the conclusion of the treatment period, OX-treated mice were visibly lean (FIG. 28C, D) and weighed 7 g±1.2 g less than the control group (FIG. 28B, Table 3). […] Total visceral fat was reduced by more than 60%. Visceral fat in the OX-injected group was noticeably darker in color relative to control tissue (FIG. 28E, F).
Further, the respiratory quotient of OX-injected group was 10% lower than the vehicle injected group, indicating higher fat oxidation capacity (FIG. 28J). […] To determine whether systemic OX injection induces BAT activity, mice with OX (10 mg/kg) or PBS were compared, using relative UCP-1 expression as an indicator for BAT activity 24-hours post-injection.

The conditions of series [2]: cited from earlier work.
[3] abbreviates: HFD six weeks, two weekly injections.

“orexin-A (EPLPDCCRQKTCSCRLYELLHGAGNHAAGILTL) [OX, human orexin A, cat; No. 24470, Anaspec]”: in series [1] (setting [3]), the “% body fat” value was 15% and 15 ± 1.1%; the Fat mass is recorded as 3.4 ± 0.4; the Fluid content amounted to 7.7 ± 1.5; the Lean mass came out at 18.7 ± 1.1. Moreover, in series [1] (setting [3]), the “Lean mass-fat mass ratio” value was found to be 5.5 ± 0.3. For the same substance, in series [1] (OX 10 mg/kg, 24-hours post-injection), the “iBAT UCP1 expression” value is “higher UCP1 levels than controls”. Besides, in series [1] (at the conclusion of the treatment period), the “body weight less than the control group” value is 7 g. Further, in series [1] (calorimetric measurements), the “oxygen consumed, more than the control group” value was determined as 15% and the “respiratory quotient, lower than the vehicle injected group” value is reported as 10%. In series [1] (end of the study), the “reduction of total visceral fat” value is reported as “more than 60%” and the “reduction of whole body fat mass” value came to 50%. In series [1] (infrared monitoring, two weeks), the physical activity entry is listed as “not more physically active”. The “increase in twenty-four hour energy expenditure” value in series [1] (relative to control mice) came out at 19%. For the same substance, in series [1] (versus vehicle), the “cumulative food intake over the 6-week period” value is listed as “not significantly different”, the “food intake during the first week” value was “ate significantly more” and the “lean mass or fluid content” value is “not significantly different”. Also, the blood-brain barrier permeation entry in series [2] (in contrast with orexin-B) is recorded as “blood-brain barrier permeant”. Further, in series [2] (versus orexin-B), the liposolubility entry was “higher liposolubility than orexin-B” and the stability result is reported as “much more stable than Orexin-B”.
